Structures are written as SMILES.

The target in assay [1] is CDK2/CyclinE1 (Homo sapiens (Human), UniProt P24941). In words: CDK2/CyclinE1 enzyme activity test (ADP-Glo). The following applies: 150 μM ATP, 25° C. 60 minutes, read-out: CDK2/Cyclin E1 IC50. The class given is biochemical. The procedure:
CDK2/CyclinE1 Enzyme Reaction System
(§1) Enzymes, substrates, ATP, and inhibitors were diluted by kinase buffer in the kit. The compounds to be tested were diluted 5-fold with a multi-channel pipette to the eighth concentration, that is, from 50 μM to 0.65 nM, the concentration of DMSO was 5%, and a double-hole experiment was set up. 1 μL of each concentration gradient of inhibitors, 2 μL of CDK2/CyclinE1 enzyme (2 ng), 2 μL mixture of substrate and ATP (150 μM ATP, 0.1 μg/μL substrate) were added to the microplates, and the final concentration gradient of the compound was 10 μM to 0.13 nM. The reaction system was reacted at 25° C. for 60 minutes. After the reaction, 5 μL of ADP-Glo reagent was added to each well, the reaction was carried out at 25° C. for 40 minutes, after the reaction was completed, 10 μL of kinase detection reagent was added to each well, the reaction was carried out at 25° C. for 30 minutes, the multiple label analyzer was used to read the chemiluminescence with an integration time of 0.5 seconds.
(§2) The equation (Sample−Min)/(Max−Min)*100% was used to convert the raw data into inhibition rate, and the value of IC50 can be obtained by curve fitting with four parameters (obtained by log (inhibitor) vs. response-Variable slope mode in GraphPad Prism). The enzymatic inhibitory activity of the compounds of the present disclosure on CDK1/CyclinB1, CDK2/CyclinA2, CDK2/CyclinE1, CDK4/CyclinD1, CDK6/CyclinD1, CDK7/CyclinH/MAT1, CDK9/CyclinT1 was provided in Table 1.

Assay [2] deals with CDK4/CyclinD1 (Homo sapiens (Human), UniProt P11802). The experiment in a line: CDK4/CyclinD1 enzyme activity test (LANCE Ultra TR-FRET). The class given is biochemical. The following applies: 350 μM ATP, 25° C. 120 minutes, read-out: CDK4/Cyclin D1 IC50. The procedure:
CDK4/CyclinD1 Enzyme Reaction System
(§3) Preparation of Kinase Buffer:
(§4) The composition of the buffer: 50 mM of hydroxyethylpiperazine ethanesulfonic acid solution at pH 7.5, 1 mM of ethylenediaminetetraacetic acid, 10 mM of magnesium chloride, 0.01% Brij-35, and 2 mM of dithiothreitol.
(§5) Enzymes, substrate LANCE Ultra ULight™-4E-BP-1(Thr37146) Peptide, ATP, and inhibitors were diluted by kinase buffer.
(§6) The compounds to be tested were diluted 5-fold with a multi-channel pipette to the eighth concentration, that is, from 40 μM to 0.512 nM, the concentration of DMSO was 4%, and a double-hole experiment was set up. […] The reaction system was reacted at 25° C. for 120 minutes. After the reaction, 5 μL mixture of EDTA and 2× LANCE™ Detection Buffer (1:1) were added to each well, the reaction was carried out at 25° C. for 5 minutes, after the reaction was completed, 5 μL of LANCE Ultra Eu-anti-P-4E-BP1(Thr37MS) (4 nM) was added to each well, the reaction was carried out at 25° C. for 60 minutes, the reaction signal was detected by Nivo instrument according to the principle of time-resolved fluorescence resonance energy transfer.
as §2

Assay [3] deals with CDK6/CyclinD1 (Homo sapiens (Human), UniProt Q00534). The experiment in a line: CDK6/CyclinD1 enzyme activity test (LANCE Ultra TR-FRET). The class given is biochemical. The following applies: 250 μM ATP, 25° C. 120 minutes, read-out: CDK6/Cyclin D1 IC50. The procedure:
CDK6/CyclinD1 Enzyme Reaction System
as §3, §4, §5, §6, §2
Background: Time-resolved FRET reads energy transfer from a long-lived donor to a nearby acceptor.

Assay [4] deals with CDK9/CyclinT1 (Homo sapiens (Human), UniProt P50750). In words: CDK9/CyclinT1 enzyme activity test (ADP-Glo). The class given is biochemical. The following applies: 100 μM ATP, 25° C. 120 minutes, read-out: CDK 9/Cyclin T1 IC50. On the procedure:
CDK9/CyclinT1 Enzyme Reaction System
as §1, with “of CDK9/CyclinT1” for “of CDK2/CyclinE1”, “enzyme (4” for “enzyme (2”, “ATP (100” for “ATP (150”, “ATP, 0.2” for “ATP, 0.1”, “for 120” for “for 60”
as §2
On the technique in general: ADP-Glo turns the ADP formed in a reaction into a luminescent signal.

Assay [5] concerns human ovarian cancer OVCAR-3 cells subcutaneous xenograft tumor. In words: In vivo efficacy study, OVCAR-3 subcutaneous xenograft tumor BALB/c nude mouse model. As to conditions: for Tumor volume (Day 0): Day 0 (at grouping), OVCAR-3 xenograft, BALB/c nude mice; for Tumor volume (Day 7): 10 mg/kg from day 0 to day 7; for Tumor volume (Day 14): 10 mg/kg from day 0 to day 14; for Tumor volume (Day 21): 10 mg/kg day 0 to day 14, 30 mg/kg from day 14 to day 21. On the procedure: In vivo efficacy study of human ovarian cancer OVCAR-3 cells subcutaneous xenograft tumor BALB/c nude mouse model
Cell culture: Human ovarian cancer OVCAR-3 cells were monolayer cultured in vitro, the culture conditions were 10% fetal bovine serum, 100 U/mL Penicillin and 100 μg/mL Streptomycin were added in RPMI 1640 medium, cultured at 37° C. 5% CO2 incubator. Conventional digestion with trypsin-EDTA was performed for passage. When the cell saturation was 80%/90% and the number reached the required level, the cells were collected, counted, and inoculated.
Animals: BALB/c nude mice, female, 6-8 weeks old, weighed 18-22 grams. A total of 95 (42+ additional 53) animals were needed, provided by the Experimental Animal Management Department of Shanghai Institute of Family Planning Sciences (formerly Shanghai Sipulbichem).
Tumor inoculation: 0.2 mL (1×10^7) OVCAR-3 cells (with matrix glue, volume ratio of 1:1) were subcutaneously inoculated on the right back of each mouse, and the mice were grouped administrated when the average tumor volume reached about 150 mm^3.
Dosage and frequency of administration: Day 0 to Day 7, 10 mg/kg; Day 7 to Day 14, 10 mg/kg; Day 14 to Day 21, 30 mg/kg;
Experimental index: The experimental index was used to examine whether tumor growth was inhibited, delayed or cured. Tumor diameters were measured with vernier calipers twice a week. The calculation formula of tumor volume was: V=0.5a×b^2, wherein a and b represented the long and short diameters of the tumor, respectively.

Sequence of CDK6/CyclinD1 (Q00534 whole entry): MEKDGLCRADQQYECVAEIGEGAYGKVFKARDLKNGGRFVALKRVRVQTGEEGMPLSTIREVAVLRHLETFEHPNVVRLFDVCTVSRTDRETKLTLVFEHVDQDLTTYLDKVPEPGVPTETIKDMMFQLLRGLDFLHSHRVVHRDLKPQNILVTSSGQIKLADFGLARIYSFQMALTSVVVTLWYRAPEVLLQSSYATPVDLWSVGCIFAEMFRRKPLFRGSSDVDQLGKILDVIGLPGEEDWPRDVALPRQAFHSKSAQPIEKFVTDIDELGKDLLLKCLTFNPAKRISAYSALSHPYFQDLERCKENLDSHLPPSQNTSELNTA
Sequence of CDK6/CyclinD1 (P24385 whole entry partner): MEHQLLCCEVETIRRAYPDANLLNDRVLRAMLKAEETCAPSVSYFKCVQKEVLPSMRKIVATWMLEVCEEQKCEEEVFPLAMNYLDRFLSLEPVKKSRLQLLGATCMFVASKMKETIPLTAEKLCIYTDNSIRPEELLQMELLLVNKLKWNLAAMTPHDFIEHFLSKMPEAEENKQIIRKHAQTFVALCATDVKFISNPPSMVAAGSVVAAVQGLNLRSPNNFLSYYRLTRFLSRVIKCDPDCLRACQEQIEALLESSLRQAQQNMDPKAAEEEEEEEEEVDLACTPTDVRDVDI
Sequence of CDK4/CyclinD1 (P11802 whole entry): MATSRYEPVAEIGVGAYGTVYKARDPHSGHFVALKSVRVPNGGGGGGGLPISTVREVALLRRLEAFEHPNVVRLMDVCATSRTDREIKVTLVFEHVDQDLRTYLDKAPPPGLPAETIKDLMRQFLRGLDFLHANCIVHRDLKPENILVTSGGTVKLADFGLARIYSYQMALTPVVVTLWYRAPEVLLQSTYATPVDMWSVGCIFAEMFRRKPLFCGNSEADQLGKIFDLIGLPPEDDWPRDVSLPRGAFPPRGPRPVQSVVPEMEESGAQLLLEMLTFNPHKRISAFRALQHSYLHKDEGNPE
Sequence of CDK4/CyclinD1 (P24385 whole entry partner): as the sequence (P24385 whole entry partner) above
Sequence of CDK9/CyclinT1 (P50750 whole entry): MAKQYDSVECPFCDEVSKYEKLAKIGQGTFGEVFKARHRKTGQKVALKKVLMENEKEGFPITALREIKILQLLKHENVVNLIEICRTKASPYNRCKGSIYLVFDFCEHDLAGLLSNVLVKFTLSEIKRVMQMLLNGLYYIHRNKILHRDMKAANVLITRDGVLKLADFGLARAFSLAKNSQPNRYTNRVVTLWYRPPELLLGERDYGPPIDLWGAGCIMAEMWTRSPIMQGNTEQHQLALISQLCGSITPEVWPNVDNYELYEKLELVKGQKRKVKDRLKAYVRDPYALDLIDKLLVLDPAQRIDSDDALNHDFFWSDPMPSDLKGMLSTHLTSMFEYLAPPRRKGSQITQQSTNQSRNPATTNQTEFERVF
Sequence of CDK9/CyclinT1 (O60563 whole entry partner): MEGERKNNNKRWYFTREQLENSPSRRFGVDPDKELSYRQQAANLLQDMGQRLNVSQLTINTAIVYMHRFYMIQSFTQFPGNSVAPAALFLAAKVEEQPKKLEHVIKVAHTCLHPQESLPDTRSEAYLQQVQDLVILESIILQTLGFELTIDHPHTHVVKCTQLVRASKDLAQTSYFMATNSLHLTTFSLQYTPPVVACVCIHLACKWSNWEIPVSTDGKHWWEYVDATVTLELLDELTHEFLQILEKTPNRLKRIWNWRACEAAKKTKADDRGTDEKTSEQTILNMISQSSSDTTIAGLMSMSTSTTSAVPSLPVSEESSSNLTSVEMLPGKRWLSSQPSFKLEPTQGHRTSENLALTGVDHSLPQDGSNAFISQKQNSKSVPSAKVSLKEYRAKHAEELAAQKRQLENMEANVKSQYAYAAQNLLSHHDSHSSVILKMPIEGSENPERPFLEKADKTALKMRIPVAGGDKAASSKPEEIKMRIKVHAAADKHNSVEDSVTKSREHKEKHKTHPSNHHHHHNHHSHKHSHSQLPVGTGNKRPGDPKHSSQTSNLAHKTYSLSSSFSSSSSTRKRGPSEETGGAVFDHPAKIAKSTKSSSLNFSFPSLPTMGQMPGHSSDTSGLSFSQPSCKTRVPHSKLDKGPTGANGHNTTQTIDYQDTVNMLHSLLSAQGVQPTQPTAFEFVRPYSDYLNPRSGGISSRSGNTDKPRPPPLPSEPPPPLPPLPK

As for `CS(=O)(=O)N1CCC(Nc2ncc3cc(C(F)F)nc(N[C@@H]4CCCC4(F)F)c3n2)CC1` (single isomer, unassigned) [Compound 22], the IC50 in assay [1] amounted to 3.52 nM. The IC50 in assay [2] came out at 0.5 nM. The IC50 in assay [3] was found to be 1.36 nM. Moreover, in assay [4], the IC50 was determined as 36.9 nM. For the same compound, in assay [5], the “Tumor volume (Day 0)” value was found to be 151 mm^3, the “Tumor volume (Day 7)” value came out at 243 mm^3, the “Tumor volume (Day 14)” value was 319 mm^3 and the “Tumor volume (Day 21)” value is given as 238 mm^3.

As to `Cc1cn(C)nc1Nc1nc(C(F)F)cc2cnc(NC3CCN(S(C)(=O)=O)CC3)nc12` [Compound 19], the IC50 in assay [1] amounted to 4.73 nM. In assay [2], the IC50 was determined as 4.26 nM. Also, the IC50 in assay [3] was 1.15 nM. The IC50 in assay [4] came out at 178 nM. In assay [5], the “Tumor volume (Day 0)” value came out at 151 mm^3, the “Tumor volume (Day 7)” value was 246 mm^3, the “Tumor volume (Day 14)” value was determined as 375 mm^3 and the “Tumor volume (Day 21)” value is recorded as 392 mm^3.

Take `Cn1cc(Cl)c(Nc2nc(C(F)F)cc3cnc(NC4CCN(S(C)(=O)=O)CC4)nc23)n1` [Compound 20]: the IC50 in assay [1] worked out at 1.33 nM. In assay [2], the IC50 was 0.82 nM. In addition, the IC50 in assay [3] worked out at 0.56 nM. For the same compound, the IC50 in assay [4] is 106 nM. In addition, in assay [5], the “Tumor volume (Day 0)” value is 151 mm^3, the “Tumor volume (Day 7)” value was determined as 236 mm^3, the “Tumor volume (Day 14)” value worked out at 338 mm^3 and the “Tumor volume (Day 21)” value was 363 mm^3.

(Values after patent US20230303564A1, “PYRIMIDINE RING COMPOUND” (MEDSHINE DISCOVERY INC., priority 2020, published 2023).)
